Measurements taken from patent publication US20210238170A1, “5,5-Difluoro- and 5-Fluoro-5-Methyl-C-Glycoside Derivatives Useful As Dual SGLT1 / SGLT2 Modulators” (Janssen Pharmaceutica NV, priority 2018, published 2021).
pIC50: −log10 of the molar value.

Assays:
[1] = biological target: T1, human SGLT1 (Homo sapiens, UniProt P13866); test: SGLT1 in vitro assay: Na-dependent 14C-AMG uptake in CHO-K1 cells stably expressing human SGLT1; assay type: cell-based; conditions: CHO-K1 cells stably expressing human SGLT1, 14C-AMG uptake; for inhibition at 0.3 µM: read-out: SGLT1 % Inh @ 0.3 μM; for pIC50: compounds of formula (I) where R0 is fluoro
T1 construct: expressed in transfected cells
T1 sequence (P13866 1-664): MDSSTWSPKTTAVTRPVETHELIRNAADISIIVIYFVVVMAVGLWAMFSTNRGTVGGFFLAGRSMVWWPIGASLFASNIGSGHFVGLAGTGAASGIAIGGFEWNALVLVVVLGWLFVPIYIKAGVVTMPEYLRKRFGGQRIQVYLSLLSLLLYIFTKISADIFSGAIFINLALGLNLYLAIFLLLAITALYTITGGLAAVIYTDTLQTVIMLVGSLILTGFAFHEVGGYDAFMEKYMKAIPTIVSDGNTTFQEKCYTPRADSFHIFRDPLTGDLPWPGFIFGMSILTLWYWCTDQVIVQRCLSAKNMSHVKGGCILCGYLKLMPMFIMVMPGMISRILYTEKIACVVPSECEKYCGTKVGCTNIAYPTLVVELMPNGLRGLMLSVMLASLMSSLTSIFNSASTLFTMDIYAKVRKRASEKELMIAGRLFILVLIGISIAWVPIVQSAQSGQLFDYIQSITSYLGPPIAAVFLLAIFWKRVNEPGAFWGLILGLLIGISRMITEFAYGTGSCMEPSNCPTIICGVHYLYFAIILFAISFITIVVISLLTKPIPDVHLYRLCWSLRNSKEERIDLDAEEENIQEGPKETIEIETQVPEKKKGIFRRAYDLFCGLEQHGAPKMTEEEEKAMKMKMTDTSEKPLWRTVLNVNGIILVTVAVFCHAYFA
Outline: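 Sodium-dependent uptake of 14C-α-methyl-glucopyranoside ([…]) over 2 h at 37°C was counted by scintillation in stable human SGLT2- or SGLT1-CHO-K1 lines pretreated with 10 mM Na-butyrate. Compounds at 0.001–10 μM were preincubated for 10 min in pH 7.4 buffer with 137 mM NaCl; output is %-inhibition or IC50.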

[2] = test system: db/db mice; test: SGLT inhibition evaluated in db/db mice: fed blood glucose AUC and 24-hr urine glucose excretion; assay type: in vivo, mouse; conditions: oral dose 10 mg/kg, mean ± SE, n = 8; for 24-hr Blood Glucose AUC vs Vehicle (%): fed
Procedure: Biological Example 3: In Vivo Assay
SGLT Inhibition Evaluated in db/db Mice
Based on fed blood glucose levels, db/db mice were allocated into either vehicle or test compound treated groups (n=8 in each group). After grouped, the mice were orally dosed with either vehicle or test compound at 0 and 10 mg/kg, in a volume of 10 ml/kg. The mice were then immediately transferred into mouse metabolic cages, after they were dosed. Fed blood glucose levels were determined at multiple timepoints after the animals were treated. Fed blood glucose AUC (area under the curve of blood glucose) was determined from the blood glucose levels measured at the timepoints.
Table 10 below, presents the measured efficacy of the test compound(s), expressed as a percentage (%) of blood glucose AUC vs that in vehicle group. The data is interpreted such that, the smaller the percentage of blood glucose AUC of compound vs vehicle, the greater efficacy of the test compound. Total urine glucose excretion (UGE) over the 24-hr period post treatment was calculated based on urine glucose concentrations and urine volumes at multiple timepoints. Urine glucose was measured using Olympus system with Genzyme diagnostics assay reagent.

inhibition at 0.3 µM [1] [%] | pIC50 [1] | SMILES | 24-hr Blood Glucose AUC vs Vehicle (%) [2] [%] | Urine Glucose Excretion (g/24 hr) [2] [g/24 hr]
76.6 | 7.47 | COc1ccc(Cc2cc([C@@H]3O[C@H](CO)C(F)(F)[C@H](O)[C@H]3O)c(O)cc2Cl)cc1 [Compound 81, (2S,3R,4R,6R)-2-(4-chloro-2-hydroxy-5-(4-methoxybenzyl)phenyl)-5,5-difluoro-6-(hydroxymethyl)-tetrahydro-2H-pyran-3,4-diol] | 55.0 ± 4.6 | –
56.2 | 7.02 | COc1cc(O)c([C@@H]2O[C@H](CO)C(F)(F)[C@H](O)[C@H]2O)cc1Cc1ccc2c(c1)CCCO2 [Compound 44, (2S,3R,4R,6R)-2-(5-(chroman-6-ylmethyl)-2-hydroxy-4-methoxyphenyl)-5,5-difluoro-6-(hydroxymethyl)tetrahydro-2H-pyran-3,4-diol] | 48.4 ± 3.4 | 0.55 ± 0.12
